Biological target: T1, human GLP-1R receptor (Homo sapiens, UniProt P43220)
T1 construct: expressed in transfected cells
Assay: GLP-1R low expression cell assay (cAMP TR-FRET, CHO-K1_hGLP-1Rlow_clone10 cells)
Assay type: cell-based
Details: for EC50: cAMP TR-FRET, 30 min at 25° C.; for Emax: maximum activation relative to control GLP-1 peptide agonist
In short: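 CHO-K1 cells stably expressing low surface human GLP-1R (clone10), 1,000 cells/well, exposed to 10-point 3-fold compound dilutions for 30 min at 25 °C. cAMP measured by TR-FRET (Eu-cAMP tracer/ULight-anti-cAMP, 15 min). EC50 from Hill fit of duplicate percent activation relative to a parallel GLP-1 control agonist.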

T1 sequence (P43220 24-463): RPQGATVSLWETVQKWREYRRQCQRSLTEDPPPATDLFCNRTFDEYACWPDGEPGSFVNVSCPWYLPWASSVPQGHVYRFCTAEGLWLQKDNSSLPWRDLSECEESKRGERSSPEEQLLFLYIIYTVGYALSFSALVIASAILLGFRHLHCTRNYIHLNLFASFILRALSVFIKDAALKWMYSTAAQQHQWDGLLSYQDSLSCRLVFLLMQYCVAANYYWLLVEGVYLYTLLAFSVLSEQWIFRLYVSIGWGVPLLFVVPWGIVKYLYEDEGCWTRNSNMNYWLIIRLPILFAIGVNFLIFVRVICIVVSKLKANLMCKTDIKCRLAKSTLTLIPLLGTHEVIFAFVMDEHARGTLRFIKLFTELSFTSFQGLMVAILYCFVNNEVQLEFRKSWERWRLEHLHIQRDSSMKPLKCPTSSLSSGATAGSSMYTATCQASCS

Structure (SMILES)	EC50	Emax
Cn1c(CN2CCC(c3cccc(OCc4ccc(Cl)cc4F)n3)CC2)nc2c(OC(F)F)nc(C(=O)O)cc21 [Compound 253, 2-((4-(6-((4-Chloro-2-fluorobenzyl)oxy)pyridin-2-yl)piperidin-1-yl)methyl)-4-(difluoromethoxy)-1-methyl-1H-imidazo[4,5-c]pyridine-6-carboxylic acid]	10 to 100 nM	
Cn1c(CN2CCC(c3cccc(COc4ccc(Cl)cc4F)n3)C2)nc2c(OC(F)F)cc(C(=O)O)cc21 (centres unmarked) [Compound 362, 2-((3-(6-((4-Chloro-2-fluorophenoxy)methyl)pyridin-2-yl)pyrrolidin-1-yl)methyl)-4-(difluoromethoxy)-1-methyl-1H-benzo[d]imidazole-6-carboxylic acid]	> 1000 nM	50 to 85%
CCOc1cc(C(=O)O)cc2c1nc(CN1CCC(c3cccc4c3OC[C@@H](c3ccc(C#N)cc3F)O4)CC1)n2C [Compound 276, (R)-2-((4-(2-(4-Cyano-2-fluorophenyl)-2,3-dihydrobenzo[b][1,4]dioxin-5-yl)piperidin-1-yl)methyl)-4-ethoxy-1-methyl-1H-benzo[d]imidazole-6-carboxylic acid]	10 to 100 nM	> 85%
O=C(O)c1cc(OCF)c2c(c1)nc(CN1CCC(c3cccc(OCc4ccc(Cl)cc4F)n3)CC1)n2CF [Compound 347, 2-((4-(6-((4-Chloro-2-fluorobenzyl)oxy)pyridin-2-yl)piperidin-1-yl)methyl)-7-(fluoromethoxy)-1-(fluoromethyl)-1H-benzo[d]imidazole-5-carboxylic acid]	> 1000 nM	25 to 50%
Cn1c(CN2CCC(c3cccc(OCc4ccc(C#N)cc4F)c3Cl)CC2)nc2c(OC(F)F)cc(C(=O)O)cc21 [Compound 179, 2-((4-(2-Chloro-3-((4-cyano-2-fluorobenzyl)oxy)phenyl)piperidin-1-yl)methyl)-4-(difluoromethoxy)-1-methyl-1H-benzo[d]imidazole-6-carboxylic acid]	> 1000 nM	25 to 50%
COCCOc1cc(C(=O)O)cc2c1nc(CN1CCC(c3cccc4c3O[C@](C)(c3ccc(Cl)cn3)O4)CC1)n2Cc1cncs1 [Compound 3, (R)-2-((4-(2-(5-Chloropyridin-2-yl)-2-methylbenzo[d][1,3]dioxol-4-yl)piperidin-1-yl)methyl)-4-(2-methoxyethoxy)-1-(thiazol-5-ylmethyl)-1H-benzo[d]imidazole-6-carboxylic acid]	100 to 1000 nM	> 85%
Cn1c(CN2CCN(c3cccc(OCc4ccc(Cl)cc4F)n3)CC2)nc2c(OC(F)F)cc(C(=O)O)cc21 [Compound 150, 2-((4-(6-((4-Chloro-2-fluorobenzyl)oxy)pyridin-2-yl)piperazin-1-yl)methyl)-4-(difluoromethoxy)-1-methyl-1H-benzo[d]imidazole-6-carboxylic acid]	10 to 100 nM	> 85%
Cn1c(CN2CCC(c3ccnc(OCc4ccc(C#N)cc4F)n3)CC2)nc2c(OC(F)F)cc(C(=O)O)cc21 [Compound 145, 2-((4-(2-((4-Cyano-2-fluorobenzyl)oxy)pyrimidin-4-yl)piperidin-1-yl)methyl)-4-(difluoromethoxy)-1-methyl-1H-benzo[d]imidazole-6-carboxylic acid]	100 to 1000 nM	> 85%
CCOc1cc(-c2cc(=O)[nH]o2)cc2c1nc(CN1CCC(c3cccc(OCc4ccc(C#N)cc4F)n3)CC1)n2C [Compound 384, 4-(((6-(1-((4-Ethoxy-1-methyl-6-(3-oxo-2,3-dihydroisoxazol-5-yl)-1H-benzo[d]imidazol-2-yl)methyl)piperidin-4-yl)pyridin-2-yl)oxy)methyl)-3-fluorobenzonitrile]	10 to 100 nM	> 85%
Cn1c(CN2CCC(c3cccc4c3O[C@H](c3ccc(C#N)cc3F)CO4)CC2)nc2c(OCCF)cc(C(=O)O)cc21 [Compound 315, (R)-2-((4-(3-(4-Cyano-2-fluorophenyl)-2,3-dihydrobenzo[b][1,4]dioxin-5-yl)piperidin-1-yl)methyl)-4-(2-fluoroethoxy)-1-methyl-1H-benzo[d]imidazole-6-carboxylic acid]	10 to 100 nM	> 85%
Cn1c(CN2CCC(c3cccc(OCc4ccc(C#N)cn4)n3)CC2)nc2c(OC(F)F)cc(C(=O)O)cc21 [Compound 213, 2-((4-(6-((5-Cyanopyridin-2-yl)methoxy)pyridin-2-yl)piperidin-1-yl)methyl)-4-(difluoromethoxy)-1-methyl-1H-benzo[d]imidazole-6-carboxylic acid]	100 to 1000 nM	> 85%
C[C@@H](F)Oc1cc(C(=O)O)cc2c1nc(CN1CCC(c3cccc(OCc4ccc(C#N)cc4F)n3)CC1)n2C [Compound 312, (R)-2-((4-(6-((4-Cyano-2-fluorobenzyl)oxy)pyridin-2-yl)piperidin-1-yl)methyl)-4-(1-fluoroethoxy)-1-methyl-1H-benzo[d]imidazole-6-carboxylic acid]	10 to 100 nM	> 85%
Cn1c(CN2CC=C(c3ccc(F)c(OCc4ccc(Cl)cc4F)c3)CC2)nc2c(OC(F)F)cc(C(=O)O)cc21 [Compound 152, 2-((4-(3-((4-Chloro-2-fluorobenzyl)oxy)-4-fluorophenyl)-3,6-dihydropyridin-1(2H)-yl)methyl)-4-(difluoromethoxy)-1-methyl-1H-benzo[d]imidazole-6-carboxylic acid]	10 to 100 nM	> 85%
Cn1c(CN2CCC(c3cccc4c3O[C@H](c3ccc(Cl)cc3F)CO4)CC2)nc2c(OC(F)F)cc(C(=O)O)cc21 [Compound 335, (R)-2-((4-(3-(4-Chloro-2-fluorophenyl)-2,3-dihydrobenzo[b][1,4]dioxin-5-yl)piperidin-1-yl)methyl)-4-(difluoromethoxy)-1-methyl-1H-benzo[d]imidazole-6-carboxylic acid]	> 1000 nM	50 to 85%
CCOc1cc(C(=O)O)cc2c1nc(CN1CCC(c3cccc4c3O[C@H](c3ccc(Cl)cc3F)CO4)CC1)n2C [Compound 265, (R)-2-((4-(3-(4-chloro-2-fluorophenyl)-2,3-dihydrobenzo[b][1,4]dioxin-5-yl)piperidin-1-yl)methyl)-4-ethoxy-1-methyl-1H-benzo[d]imidazole-6-carboxylic acid]	10 to 100 nM	> 85%
N#Cc1ccc(COc2cccc(C3CCN(Cc4nc5c(OC(F)F)cc(C(=O)O)cc5n4CC4(C#N)CC4)CC3)n2)c(F)c1 [Compound 105, 2-((4-(6-((4-Cyano-2-fluorobenzyl)oxy)pyridin-2-yl)piperidin-1-yl)methyl)-1-((1-cyanocyclopropyl)methyl)-4-(difluoromethoxy)-1H-benzo[d]imidazole-6-carboxylic acid]	< 10 nM	> 85%
Cn1c(CN2CCC(c3cccc(OCc4ccc(C#N)cc4F)n3)CC2)nc2c(Oc3ccc(F)cc3)cc(C(=O)O)cc21 [Compound 352, 2-((4-(6-((4-Cyano-2-fluorobenzyl)oxy)pyridin-2-yl)piperidin-1-yl)methyl)-4-(4-fluorophenoxy)-1-methyl-1H-benzo[d]imidazole-6-carboxylic acid]	100 to 1000 nM	> 85%
Cn1c(CN2CCC(c3cccc(N4CCc5cc(C#N)cc(F)c5C4)n3)CC2)nc2c(OC(F)F)cc(C(=O)O)cc21 [Compound 151, 2-((4-(6-(6-Cyano-8-fluoro-3,4-dihydroisoquinolin-2(1H)-yl)pyridin-2-yl)piperidin-1-yl)methyl)-4-(difluoromethoxy)-1-methyl-1H-benzo[d]imidazole-6-carboxylic acid]	100 to 1000 nM	> 85%
Cn1c(CN2CCC(c3cccc(OCc4ccc(Cl)cc4F)n3)CC2)nc2c(OC(F)CF)cc(C(=O)O)cc21 (single isomer, unassigned) [Compound 329]	< 10 nM	> 85%
N#Cc1ccc(COc2cccc(C3CCN(Cc4nc5c(O)c(C(=O)O)ccc5n4C[C@@H]4CCO4)CC3)n2)c(F)c1 [Compound 376, (S)-2-((4-(6-((4-Cyano-2-fluorobenzyl)oxy)pyridin-2-yl)piperidin-1-yl)methyl)-4-hydroxy-1-(oxetan-2-ylmethyl)-1H-benzo[d]imidazole-5-carboxylic acid]	< 10 nM	> 85%
Cn1c(CN2CCC(c3cccc(OCc4ccc(Cl)cc4F)n3)CC2)nc2c(O[C@H]3C[C@H](F)C3)cc(C(=O)O)cc21 [Compound 353, 2-((4-(6-((4-Chloro-2-fluorobenzyl)oxy)pyridin-2-yl)piperidin-1-yl)methyl)-4-((1r,3r)-3-fluorocyclobutoxy)-1-methyl-1H-benzo[d]imidazole-6-carboxylic acid]	10 to 100 nM	> 85%
CCOc1cc(C(=O)O)cc2c1nc(CN1CCC(c3cccc4c3O[C@@H](c3ccc(Cl)cc3F)CO4)CC1)n2C [Compound 266, (S)-2-((4-(3-(4-chloro-2-fluorophenyl)-2,3-dihydrobenzo[b][1,4]dioxin-5-yl)piperidin-1-yl)methyl)-4-ethoxy-1-methyl-1H-benzo[d]imidazole-6-carboxylic acid]	< 10 nM	> 85%
Cn1c(CN2CCC(c3cccc(OCc4ccc(C(F)F)cc4F)n3)CC2)nc2c(OC(F)F)cc(C(=O)O)cc21 [Compound 201, 4-(Difluoromethoxy)-2-((4-(6-((4-(difluoromethyl)-2-fluorobenzyl)oxy)pyridin-2-yl)piperidin-1-yl)methyl)-1-methyl-1H-benzo[d]imidazole-6-carboxylic acid]	10 to 100 nM	> 85%
COc1cc(C(=O)O)cc2c1nc(CN1CCC(c3cccc4c3OC[C@@H](c3ccc(Cl)cc3F)O4)CC1)n2C [Compound 271, (R)-2-((4-(2-(4-Chloro-2-fluorophenyl)-2,3-dihydrobenzo[b][1,4]dioxin-5-yl)piperidin-1-yl)methyl)-4-methoxy-1-methyl-1H-benzo[d]imidazole-6-carboxylic acid]	100 to 1000 nM	50 to 85%

Reference: US20240368120A1 (Terns Pharmaceuticals, Inc., priority 2023, published 2024)
